Our source for the IC50 values is patent US7504393B2, “Benzylamine analogues” (priority 2001, dated 2009).

Each structure is given as a SMILES string. Counter-ions that a name gives are not always drawn. Like-named read-outs stand apart in the source and are kept apart here.

The target in one assay is T1, acetylcholinesterase (Mus musculus, UniProt P21836).
T1 construct: phosphate buffer solution containing the brain homogenate; from tissue; host or cells: mouse whole brain homogenate
T1 sequence (P21836 32-614): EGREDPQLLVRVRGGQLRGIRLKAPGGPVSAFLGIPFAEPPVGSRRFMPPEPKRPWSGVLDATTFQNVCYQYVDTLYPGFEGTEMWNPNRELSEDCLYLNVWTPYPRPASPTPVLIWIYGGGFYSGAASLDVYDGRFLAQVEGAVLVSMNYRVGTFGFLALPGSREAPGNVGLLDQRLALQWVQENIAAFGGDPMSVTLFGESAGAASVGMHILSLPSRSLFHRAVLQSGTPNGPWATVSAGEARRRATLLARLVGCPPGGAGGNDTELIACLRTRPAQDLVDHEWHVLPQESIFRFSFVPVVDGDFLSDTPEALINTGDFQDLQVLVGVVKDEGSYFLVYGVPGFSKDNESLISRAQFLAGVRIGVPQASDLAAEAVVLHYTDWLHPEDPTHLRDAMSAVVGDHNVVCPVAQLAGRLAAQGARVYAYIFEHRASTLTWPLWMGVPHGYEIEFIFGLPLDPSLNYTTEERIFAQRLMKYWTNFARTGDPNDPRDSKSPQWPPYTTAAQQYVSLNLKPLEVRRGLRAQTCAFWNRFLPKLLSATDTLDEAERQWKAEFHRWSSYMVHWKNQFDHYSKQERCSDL
Kind of assay: biochemical.

Another assay deals with T2, serotonin re-uptake (Rattus norvegicus, UniProt P31652).
T2 construct: synaptosome prepared from rat whole brains except the cerebellums; from tissue; host or cells: synaptosomes from rat whole brain except the cerebellum
Kind of assay: Serotonin re-uptake inhibitory activity (synaptosome, [3H]5-HT). Format: biochemical. Particulars: synaptosome from rat whole brain except cerebellum; [3H]5-HT, 37° C.; read-out: IC50 (nM) Serotonin re-uptake inhibitory activity. On the procedure: Serotonin re-uptake inhibitory activity was determined using synaptosome prepared from rat whole brains except the cerebellums. Briefly, 10 μl of DMSO solution-dissolved test substance (control group; DMSO solution alone) was added to 1 ml of synaptosome and incubated for 5 min at 37° C. (in the control, DMSO alone was added to the synaptosome and incubated at 4° C.). Furthermore, 10 μl of [^3H]5-HT solution (final concentration: 10 μM as a total concentration of 5-HT, 100 nM as [^3H]5-HT) was added and incubated for 5 min at 37° C. Then 4 ml of ice-cold saline was added to stop the response. The response solution was filtered, 4 ml of saline was added, and the solution was once again filtered. Furthermore, 5 ml of Pico-Fluor was added, then ^3H levels on filter papers were counted by a liquid scintillation counter. Concentrations of test compounds to inhibit serotonin re-uptake by 50% (IC50) were calculated.

Setting [1] is: mouse whole brain homogenate, acetylthiocholine/DTNB, absorbance 412 nm, read-out: IC50 (nM) Acetylcholinesterase inhibitory activity.

The term IC50 denotes the point on the concentration scale where inhibition reaches its midpoint.

T2 sequence (P31652 whole entry): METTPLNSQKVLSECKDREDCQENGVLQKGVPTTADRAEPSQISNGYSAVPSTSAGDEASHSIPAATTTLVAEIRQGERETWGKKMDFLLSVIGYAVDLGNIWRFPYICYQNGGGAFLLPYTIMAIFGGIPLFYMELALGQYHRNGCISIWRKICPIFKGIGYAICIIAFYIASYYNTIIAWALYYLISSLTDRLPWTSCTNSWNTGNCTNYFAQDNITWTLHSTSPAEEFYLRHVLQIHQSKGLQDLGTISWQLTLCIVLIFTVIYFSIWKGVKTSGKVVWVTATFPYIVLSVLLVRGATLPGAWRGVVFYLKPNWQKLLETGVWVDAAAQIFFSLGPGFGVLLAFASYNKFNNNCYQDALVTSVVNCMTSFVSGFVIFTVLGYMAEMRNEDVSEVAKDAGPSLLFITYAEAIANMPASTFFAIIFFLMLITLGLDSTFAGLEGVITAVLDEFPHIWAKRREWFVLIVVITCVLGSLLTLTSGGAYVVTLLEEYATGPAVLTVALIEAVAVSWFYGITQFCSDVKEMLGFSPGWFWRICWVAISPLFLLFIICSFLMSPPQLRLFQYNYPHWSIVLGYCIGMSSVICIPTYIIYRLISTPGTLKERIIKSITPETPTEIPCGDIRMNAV

As to `CN(C)C(=O)Oc1ccc2c(c1)CCCN(C)C2CCOc1ccc([N+](=O)[O-])cc1Cl` (stereo not drawn) [Test Compound 193, 2-Methyl-1-[2-(2-chloro-4-nitrophenoxy)-ethyl]-1,3,4,5-tetrahydro-1H-benzo[c]azepin-7-yl dimethylcarbamate hydrochloride], the IC50 at acetylcholinesterase (setting [1]) worked out at 24 nM; at serotonin re-uptake it was 680 nM.

As to `CN(C)C(=O)Oc1ccc(C(CCOc2ccc(F)cc2)N(C)C)cc1` (stereo not drawn) [Test Compound 31, hydrochloride], the half-inhibitory concentration (IC50) on acetylcholinesterase (setting [1]) worked out at 440 nM; at serotonin re-uptake, 323 nM.

For the compound `CNC(CCOc1ccc(Cl)c(F)c1)c1ccc(OC(=O)N(C)C)cc1` (stereo not drawn) [Test Compound 55, 4-[3-(4-Chloro-3-fluorophenoxy)-1-methylaminopropyl]phenyl dimethylcarbamate hydrochloride], the IC50 on acetylcholinesterase came to 280 nM; on serotonin re-uptake, 60 nM.
